Data taken from the NIST ThermoML archive (doi:10.1021/je901067c).
± gives the expanded uncertainty stated by the source.

Legend:
[1] = refractive index (Na D-line) (dimensionless); conditions: 101.33 kPa, Liquid, Standard Abbe refractometry
[2] = 101 kPa, Liquid; for viscosity: Capillary tube (Ostwald / Ubbelohde) method
[3] = refractive index (Na D-line) (dimensionless); xn = mol fraction of the nth substance listed; conditions: 101 kPa, Liquid, Standard Abbe refractometry
[4] = xn = mol fraction of the nth substance listed; conditions: 101 kPa, Liquid; for viscosity: Capillary tube (Ostwald / Ubbelohde) method

SMILES | refractive index ([1]; 298.15 K) | refractive index ([1]; 308.15 K) | refractive index ([1]; 318.15 K) | mass density ([2]; 298.15 K) [kg/m3] | viscosity ([2]; 298.15 K) [mPa·s] | mass density ([2]; 308.15 K) [kg/m3] | viscosity ([2]; 308.15 K) [mPa·s] | mass density ([2]; 318.15 K) [kg/m3] | viscosity ([2]; 318.15 K) [mPa·s] | other results
CCCC(C)O (stereo not drawn) [pentan-2-ol] | 1.4032 ± 0.0009 | 1.399 ± 0.0009 | 1.395 ± 0.0009 | 805.3 ± 0.56 | 3.478 ± 0.026 | 797 ± 0.57 | 2.361 ± 0.018 | 788.37 ± 0.58 | 1.772 ± 0.014 | 
CCCCCO [pentan-1-ol] + CCC(C)=O |  |  |  |  |  |  |  |  |  | refractive index ([3]; 298.15 K, x2 = 0): 1.4068 ± 0.0009; refractive index ([3]; 308.15 K, x2 = 0): 1.4031 ± 0.0009; refractive index ([3]; 318.15 K, x2 = 0): 1.3996 ± 0.0009; viscosity ([4]; 298.15 K, x2 = 0): 3.54 ± 0.026 mPa·s; mass density ([4]; 298.15 K, x2 = 0): 810.85 ± 0.55 kg/m3; viscosity ([4]; 308.15 K, x2 = 0): 2.658 ± 0.02 mPa·s; mass density ([4]; 308.15 K, x2 = 0): 803.45 ± 0.56 kg/m3; viscosity ([4]; 318.15 K, x2 = 0): 2.288 ± 0.017 mPa·s; mass density ([4]; 318.15 K, x2 = 0): 795.9 ± 0.57 kg/m3
CCC(C)=O [butanone] + CCCC(C)O |  |  |  |  |  |  |  |  |  | refractive index ([3]; 298.15 K, x1 = 1): 1.375 ± 0.0009; refractive index ([3]; 308.15 K, x1 = 1): 1.37 ± 0.0009; refractive index ([3]; 318.15 K, x1 = 1): 1.3657 ± 0.0009; viscosity ([4]; 298.15 K, x1 = 1): 0.391 ± 0.005 mPa·s; mass density ([4]; 298.15 K, x1 = 1): 799.76 ± 0.56 kg/m3; viscosity ([4]; 308.15 K, x1 = 1): 0.361 ± 0.005 mPa·s; mass density ([4]; 308.15 K, x1 = 1): 789.21 ± 0.58 kg/m3; viscosity ([4]; 318.15 K, x1 = 1): 0.334 ± 0.0049 mPa·s; mass density ([4]; 318.15 K, x1 = 1): 778.52 ± 0.59 kg/m3
CCC(C)=O [butanone] | 1.375 ± 0.0009 | 1.37 ± 0.0009 | 1.3657 ± 0.0009 | 799.76 ± 0.56 | 0.391 ± 0.005 | 789.21 ± 0.58 | 0.361 ± 0.005 | 778.52 ± 0.59 | 0.334 ± 0.005 | 
CCC(O)CC [3-pentanol] | 1.4047 ± 0.0009 | 1.4029 ± 0.0009 | 1.3981 ± 0.0009 | 815.79 ± 0.54 | 4.625 ± 0.034 | 806.91 ± 0.56 | 2.864 ± 0.022 | 797.66 ± 0.57 | 1.902 ± 0.015 | 
CCC(C)=O [butanone] + CCC(O)CC |  |  |  |  |  |  |  |  |  | refractive index ([3]; 298.15 K, x1 = 1): 1.375 ± 0.0009; refractive index ([3]; 308.15 K, x1 = 1): 1.37 ± 0.0009; refractive index ([3]; 318.15 K, x1 = 1): 1.3657 ± 0.0009; viscosity ([4]; 298.15 K, x1 = 1): 0.391 ± 0.005 mPa·s; mass density ([4]; 298.15 K, x1 = 1): 799.76 ± 0.56 kg/m3; viscosity ([4]; 308.15 K, x1 = 1): 0.361 ± 0.005 mPa·s; mass density ([4]; 308.15 K, x1 = 1): 789.21 ± 0.58 kg/m3; viscosity ([4]; 318.15 K, x1 = 1): 0.334 ± 0.0049 mPa·s; mass density ([4]; 318.15 K, x1 = 1): 778.52 ± 0.59 kg/m3
CCCCCO [pentan-1-ol] | 1.4068 ± 0.0009 | 1.4031 ± 0.0009 | 1.3996 ± 0.0009 | 810.85 ± 0.55 | 3.54 ± 0.026 | 803.45 ± 0.56 | 2.658 ± 0.02 | 795.9 ± 0.57 | 2.288 ± 0.017 | 
